Here are results for 1 compound from patent publication US20090175845A1, “METHODS FOR IDENTIFYING COMPOUNDS THAT MODULATE PHB DOMAIN PROTEIN ACTIVITY AND COMPOSITIONS THEREOF” (THE TRUSTEES OF COLUMBIA UNIVERSITY IN THE CITY OF NEW YORK, priority 2005, published 2009).

The target in one test is T1, Podocin (Mus musculus, UniProt Q91X05).
T1 construct: expressed in transfected cells; host or cells: HEK 293T
T1 sequence (Q91X05 1-385): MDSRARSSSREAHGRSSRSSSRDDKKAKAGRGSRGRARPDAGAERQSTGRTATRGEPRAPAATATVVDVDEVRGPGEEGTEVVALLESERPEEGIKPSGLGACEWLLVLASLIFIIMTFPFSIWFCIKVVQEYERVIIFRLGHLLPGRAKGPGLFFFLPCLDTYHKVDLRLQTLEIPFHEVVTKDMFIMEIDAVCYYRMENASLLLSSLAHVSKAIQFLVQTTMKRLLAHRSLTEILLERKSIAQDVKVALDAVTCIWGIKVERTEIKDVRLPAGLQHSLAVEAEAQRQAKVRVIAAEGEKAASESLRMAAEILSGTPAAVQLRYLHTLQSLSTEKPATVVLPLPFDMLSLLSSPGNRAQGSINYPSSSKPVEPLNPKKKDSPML
Nature of the test: Photoaffinity labeling with photoactivatable lipids in HEK 293T cells. Type of test: binding. The settings on record: Podocin expressed in HEK 293T cells, 16 hours, UV irradiation, autoradiography. The protocol: (§1) Photoaffinity labeling. Experiments were performed as described infra. For labeling with [3H]photocholesterol or [3H]photophosphatidylcholine, cells were supplemented with delipidized FCS and [3H]photocholesterol-MBCD complex or 10-azi-stearate and [3H]choline were added. After 16 hours, cells were washed three times with Ca/Mg-PBS (PBS containing 0.1 mM CaCl2 and 1 mM MgCl2) and irradiated for 30 minutes in Ca/Mg-PBS with a 100 W mercury lamp. For further analysis, cells were lysed on ice for 1 h in lysis buffer (50 mM Tris-HCl pH 7.4, 140 mM NaCl, 5 mM EDTA, 0.5 mM phenylmethylsulfonyl fluoride (PMSF), 1% Triton® X-100, 0.5% deoxycholate). The lysate was centrifuged for eight minutes at 10,000×g, and the supernatant was subjected to immunoprecipitation using an anti-FLAG monoclonal antibody. Aliquots of the starting extract, the supernatants after immunoprecipitation and the immunoprecipitates were separated by SDS-PAGE (12%) followed by blotting of the proteins on PVDF membrane. Radioactivity was detected by phosphoimaging (Fujifilm BAS-2500, Fuji Photo Film Co., Ltd, Japan) using a Tritium-sensitive BAS-TR2025 imaging plate (Fuji Photo Film Co., Ltd, Japan). From the same membrane, an immunoblot was performed using anti-FLAG antibodies.
(§2) Cell Culture Studies. Most cell studies used HEK 293T cells that were grown in DMEM as described [Huber et al. (2001) J. Biol. Chem. 18:18]. […]

A further test deals with T2, MEC-2 (Caenorhabditis elegans, UniProt Q27433).
T2 construct: expressed in transfected cells; host or cells: HEK 293T
T2 sequence (Q27433 1-481): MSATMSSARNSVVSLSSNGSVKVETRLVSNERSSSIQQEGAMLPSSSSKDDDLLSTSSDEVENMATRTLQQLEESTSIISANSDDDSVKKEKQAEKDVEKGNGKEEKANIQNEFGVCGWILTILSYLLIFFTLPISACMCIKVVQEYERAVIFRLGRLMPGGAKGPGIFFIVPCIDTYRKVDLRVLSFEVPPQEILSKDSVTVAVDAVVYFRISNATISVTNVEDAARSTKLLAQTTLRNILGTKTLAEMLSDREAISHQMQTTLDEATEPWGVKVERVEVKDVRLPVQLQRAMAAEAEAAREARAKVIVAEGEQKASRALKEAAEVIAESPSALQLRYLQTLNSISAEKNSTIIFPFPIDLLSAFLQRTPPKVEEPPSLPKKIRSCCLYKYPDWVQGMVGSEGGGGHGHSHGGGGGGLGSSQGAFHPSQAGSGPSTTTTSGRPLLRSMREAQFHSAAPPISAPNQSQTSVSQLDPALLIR
The test is described as above. The test is classed as binding, C. elegans. The conditions noted are these: MEC-2 expressed in HEK 293T cells, 16 hours, UV irradiation, autoradiography. The protocol: as §1, §2

Test [1] deals with mec-2 null worms expressing the mec-2(C140/174A) gene. In words: C. elegans gentle touch sensitivity on plates with defined sterols. The test is classed as in vivo. The settings on record: sterol substituted for cholesterol in the growth medium, FIG. 8C. The protocol: C. elegans experiments. C. elegans strains were cultured at 20° C., assayed for touch sensitivity, and prepared for immunofluorescence as described previously [Zhang et al. (2004) Curr. Biol. 14:1888-96; Goodman et al. (2002) Nature 415:1039-42]. Briefly, C. elegans strains were cultured at 20° C. as described in the art. Strains were grown for at least three consecutive generations without starvation before carrying out the experiments described herein. Gentle touch and harsh touch sensitivity were assayed in blind tests by stimulating with an eyebrow hair or prodding with a platinum wire, respectively, as described in the art. To quantify the response, the number of responses in about 30 animals to 10 touches delivered alternately near the head and tail was recorded. Whole-mount immunofluorescence microscopy was carried out using methods known in the art.
Media for growth on limiting or no cholesterol or on other sterols were prepared from chloroform-extracted reagents as described by Matyash et al. [(2004) PLoS Biol. 2: e280].
First, a version of MEC-2 with reduced cholesterol binding was generating by mutating the predicted palmitoylation sites of the protein. Briefly, HEK293T cells were transfected with wild type MEC-2 or MEC-2(C140/174A) and labeled with [^3H]palmitic acid or [^3H]photoaffinity cholesterol. Equal expression of proteins in the lysates was confirmed on Western blots. […] Because touch sensitivity of wild-type animals was not affected by this limited cholesterol depletion, the effects observed with the palmitoylation mutant cannot be attributed to indirect effects on neuronal growth or development. Test compounds that target palmitoylation sites in PHB domain proteins can be used to modulate activity of such proteins, for example, by reducing their activity.

On to `CC(C)CCC[C@@H](C)[C@H]1CC[C@H]2[C@@H]3CC=C4C[C@@H](O)CC[C@]4(C)[C@H]3CC[C@]12C` [cholesterol], for which the “binding of photoactivatable lipid to Podocin” value on Podocin is “bound”. Also, the “binding of photoactivatable lipid to MEC-2” value at MEC-2 is “bound”. Besides, in test [1], the “rescue of reduced touch sensitivity” value is “dependent on the cholesterol concentration”.
